From patent US20090104148A1, “Treatment and prevention of joint disease” (priority 2007, published 2009)
“Also recorded” adds a separate entry of the source.

Legend:
Format in all cases: in vivo, Male Lewis rats
ACL-transection model [1] = test: Ex-vivo joint coefficient of friction (μ), modified Stanton pendulum, ACL-transection model, Example 4; details: 28 days following transection
[2] = system: ACL-transection (ACLT) model; test: Ex-vivo joint coefficient of friction (μ), modified Stanton pendulum, ACL-transection model, Example 3; details: etanercept-treated ACLT joints vs non-treated ACLT joints; 0.5 mg/kg subcutaneously days 1-13; 2 weeks following ACLT
Description: (§1) The following reagents and methods were used to evaluate inhibition of the effects of TNF-α by etanercept and the preservation of joint lubrication and decrease cartilage damage following an ACL injury. ACL-transection (ACLT) model and entanercept administration: Male Lewis rats 7-8 weeks were assigned to either an ACL-transection group (n=5), etanercept-treated ACL-transection group (n=5) or a sham-group (n=4). Etanercept was given subcutaneously at 0.5 mg/kg on days 1, 3, 5, 7, 9, 11, and 13 following ACLT. At 14 days following surgery, ACLT, contralateral (CL) and sham (S) joints were harvested and lavaged. Lavaging was performed by injecting 100 μl in the joint capsule, flexing and extending the joint for ten times and aspirating 50 μl of fluid. SF Lubricin levels: Lubricin levels were determined using sandwich ELISA employing a lubricin-specific monoclonal antibody, and peanut agglutinin (PNA). Ex-vivo joint μ: Articular joints' μ values were determined using modified Stanton pendulum (Elsaid K A et al, Arthritis Rheum 2007; 56:108-116). sGAG levels in SF lavages: Total sGAG levels were determined by Alcian blue binding assay.

[3] = system: ACL-transection (ACLT) model; test: sGAG levels in SF lavages by Alcian blue binding assay, ACL-transection model, Example 3; details: etanercept-treated vs non-treated joints; 0.5 mg/kg subcutaneously days 1-13; 2 weeks following ACLT
Description: as §1

[4] = system: ACL-transection (ACLT) model; test: SF lavage lubricin levels by sandwich ELISA, ACL-transection model, Example 3; details: etanercept-treated ACLT joints vs non-treated ACLT joints, 0.5 mg/kg subcutaneously days 1, 3, 5, 7, 9, 11, 13, 2 weeks following ACLT
Description: as §1

ACL-transection model [5] = test: Surface-associated lubricin coverage from 9G3-stained histological specimens, ACL-transection model, Example 4
Description: (§2) Etanercept was administered to animals, and condroprotection was evaluated using an ACL-transection model. Male Lewis rats 7-8 weeks were assigned to either an ACL-transection group (n=5), 2 etanercept-treated ACLT groups (n=12, 6 in each group) or a sham surgery group (n=4). Etanercept was given subcutaneously at 0.5 mg/kg on days 8, and 15 following transection (Treatment A) or on days 15 and 22 (Treatment B). At 28 days following transection, ACL-transected (ACLT), contralateral (CL) and sham joints were harvested and lavaged. Lavaging was performed by injecting 50 μl of normal saline in the joint capsule, flexing and extending the joint for ten times and then aspirating 30 μl of fluid.
(§3) SF lubricin levels were determined using a sandwich ELISA employing a lubricin-specific monoclonal antibody such as 9G3, and peanut agglutinin. Surface-associated lubricin coverage was calculated from 9G3-stained histological specimens. Quantitiation of lubricin staining intensity was calculated using Image Pro-Plus software (Media Cybernetics, MD, USA) with pre-determined threshold parameters and expressed as percentage of lubricin surface coverage. An average of lubricin surface coverage of the medial and lateral regions of femur and tibial cartilage surfaces was calculated.

ACL-transection model [6] = test: SF lavage lubricin levels by sandwich ELISA, early vs late etanercept, ACL-transection model, Example 4; details: 28 days following transection
Description: as §2, §3

etanercept
mean coefficient of friction (μ) (ACL-transection model [1]; Treatment A (0.5 mg/kg s.c. days 8 and 15), ACLT joints): 6.5*10^−4
mean coefficient of friction (μ) (ACL-transection model [1]; Treatment A (0.5 mg/kg s.c. days 8 and 15), CL joints): 4.7*10^−4
mean coefficient of friction (μ) (ACL-transection model [1]; Treatment B (0.5 mg/kg s.c. days 15 and 22), ACLT joints): 6.6*10^−4
mean coefficient of friction (μ) (ACL-transection model [1]; Treatment B (0.5 mg/kg s.c. days 15 and 22), CL joints): 4.9*10^−4
joints' μ values, treatments A and B vs untreated ACLT and sham joints (ACL-transection model [1]; treatments A and B): lower than the μ values of ACLT joints
ex-vivo joint coefficient of friction (μ) [2]: significantly (p=0.021) lower
sGAG SF lavage levels [3]: significantly (p<0.001) lower
Lubricin SF lavage levels [4]: significantly (p<0.001) higher
Lubricin SF lavage levels ([4]; listed as ENBREL™): upregulation of lubricin
Lubricin coverage in the CL joints (ACL-transection model [5]; contralateral (CL) joints, treatments A and B vs other groups, 28 days following transection): comparable across the different groups
lubricin layer in the superficial zone (ACL-transection model [5]; inflamed rat joint following an ACL injury, ENBREL alone): reestablishes some of the lubricin layer in the superficial zone
Lubricin coverage of articular surfaces (percentage surface coverage) (ACL-transection model [5]; untreated ACLT joints compared to treatments A and B (0.5 mg/kg s.c.), 28 days following transection): significantly (p<0.01) lower than in treatment-A, treatment-B; also recorded: significantly (p<0.01) lower in the ACLT joints compared to treatments A, B
SF lavage lubricin levels (ACL-transection model [6]; Treatment A (0.5 mg/kg s.c. days 8 and 15), ACLT joints, vs ACLT control and treatment B): significantly (p<0.01) higher
SF lavage lubricin levels in CL joints (ACL-transection model [6]; contralateral (CL) joints, treatments A and B vs other groups): comparable across the different groups
